Reference: PMC10485906, “Development of a Dihydroquinoline–Pyrazoline GluN2C/2D-Selective Negative Allosteric Modulator of the N-Methyl-D-aspartate Receptor” (ACS Chemical Neuroscience, 2023)

Assays:
[1] = target: GluN1/GluN2D (Rattus norvegicus, UniProt Q62645); assay: Whole-cell voltage-clamp recordings, HEK cells, GluN1/GluN2D (agonist dependence); format: cell-based
Source text: We previously described the actions of the GluN2C/GluN2D-preferring negative allosteric modulator DQP-1105 as dependent on glutamate (but not glycine) binding, in that DQP-1105 affinity increases after GluN1/GluN2D NMDARs bind glutamate.[32] […] The concentration-dependent relaxation is indicative of an agonist-induced increase in potency that leads to re-equilibration of the inhibitor after agonist binding induces an increase in inhibitor affinity. We investigated the glutamate dependence of compound 2i (GluN1/GluN2D, Figure 4; GluN1/GluN2C, Figure S2), DQP-1105 (Figure S1), and compound (S)-2a (DQP-69;[33]Figure S3) using the same protocols.
We preincubated cells with glycine and the inhibitor 2i (DQP-997-74) and compared inhibitor potency during the peak and steady-state current responses to glutamate application. […] To investigate the time course of 2i inhibition, we fitted the relaxation of the current response with a single exponential function. If the current response time course reflects 2i binding, then the reciprocal of τinhibition should be linearly related to its concentration, with the slope equal to kON and intercept equal to kOFF. […] The deactivation of GluN1/GluN2D receptors (5.3 ± 0.2 s) was slowed by the presence of compound 2i when applied at concentrations of 0.1 μM (7.3 ± 0.3 s; p = 0.017) and 0.3 μM (10.5 ± 1.0 s; p = 0.002) but not at 0.03 μM (5.6 ± 0.3 s; p = 0.518; Figure 4E). […] This phenomenon was previously discovered for QNZ-46, a glutamate-dependent GluN2C/2D-selective inhibitor with a different structural core.[42] As proposed in that study, the prolonged deactivation may indicate that 2i slows a conformational change necessary for glutamate unbinding or 2i may need to unbind before glutamate can unbind.
In addition, we evaluated how glutamate dependence affects inhibition of responses to brief agonist applications similar to phasic glutamate release that occurs at synapses. To do so, we preincubated cells expressing GluN1/GluN2D receptors with the inhibitor 2i and then applied trains of five brief pulses of NMDA (which dissociates more rapidly than glutamate) and glycine from a pressurized micropipette to mimic repetitive synaptic transmission (Figure 4F). We measured the peak amplitude and compared the concentration–response curves for the inhibition of the first and last response (Figure 4G). The initial train of pulses in the absence of drug controls for systematic errors such as internalization of receptors.
To further evaluate whether 2i followed the law of mass action, we coapplied different concentrations of 2i with glutamate during the steady-state glutamate and glycine responses of GluN1/GluN2D receptors expressed in HEK cells (Figure 4H). […] We also fitted the onset and offset time course of the inhibition produced by compound 2i with a single exponential function (Figure 4J).
HEK293 cells (HEK, ATCC CRL-1573) were plated on glass coverslips pretreated with 0.1 mg/mL poly-D-lysine and cultured in Dulbecco’s modified Eagle medium (DMEM) plus Glutamax (GIBCO 10569-10) supplemented with 10% fetal bovine serum, 10 U/mL of penicillin, and 10 μg/mL of streptomycin at 37 °C and 5% CO2. The cells were transiently transfected with cDNA encoding rat GluN1, GluN2D, and eGFP at a ratio of 1:1:5 by using the calcium phosphate precipitation method.[48] After 24–48 h following the transfection, the cells were perfused with external recording solution that contained (in mM) 3 KCl, 150 NaCl, 0.01 EDTA, 1.0 CaCl2, 10 HEPES, and 22 D-mannitol (the pH was adjusted to 7.4 with NaOH). The patch electrodes (resistance 3–5 MΩ) were prepared from thin-walled glass micropipettes (TW150F-4, World Precision Instruments, Sarasota, FL) by a dual-stage glass micropipette puller (PC-10, Narishige, Tokyo, Japan) and filled with internal solution containing (in mM) 110 D-gluconate, 110 CsOH, 30 CsCl, 5 HEPES, 4 NaCl, 0.5 CaCl2, 2 MgCl2, 5 BAPTA, 2 NaATP, and 0.3 NaGTP. […]

[2] = target: α7-nACh (Rattus norvegicus, UniProt Q05941); assay: Off-target, oocytes, nicotinic acetylcholine α7; format: cell-based; conditions: 1 µM compound; 300 µM acetylcholine
Procedure: Analysis of Off-target Actions
Compound (S)-(-)-2i was tested at 1 µM for actions at glycine-activated GluN1/GluN3A (human GluN1-F484A,T518L/GluN3A referred to a GluN1-FA,TL/GluN3A) and rat GluN1-4a/GluN3B in the presence of 0.5 µM CGP-78608. cRNA injection ratios for GluN1/GluN3 were 1:2. Compound (S)-(-)- 2i was also tested for actions at AMPA (rat GluA1, rat GluA2, human GluA3-L531Y), kainate (rat GluK2), nicotinic acetylcholine (rat α7 and α4β2, cRNA ratio 1:1), GABAA (rat α1β2γ2S, cRNA ratio 1:1:1), GABAC (rat ρ1), glycine (rat α1), and purinergic (human P2X) receptors expressed in Xenopus oocytes. cRNA encoding the receptor subunits was synthesized from linear template cDNA using the mMessage mMachine kit (Ambion). Oocytes were injected with 1-5 ng cRNA in a 50 nL volume and incubated in Barth's solution at 15°C for 2-5 days prior to recording. GluK2-expressing oocyte were incubated in 1 mg/ml (10 µM) concanavalin-A for 10 min prior to recording. The cDNAs encoding GABAC and glycine subunits were provided by Dr. D. Weiss (University of Texas Health Science Center at San Antonio). cDNAs encoding nicotinic acetylcholine receptor subunits were provided by Drs. […]
GABA. […] Responses in presence of test compound were expressed as a percent of control. […]

GluN1/GluN2D, sequence (Q62645 28-1323, other chains not shown): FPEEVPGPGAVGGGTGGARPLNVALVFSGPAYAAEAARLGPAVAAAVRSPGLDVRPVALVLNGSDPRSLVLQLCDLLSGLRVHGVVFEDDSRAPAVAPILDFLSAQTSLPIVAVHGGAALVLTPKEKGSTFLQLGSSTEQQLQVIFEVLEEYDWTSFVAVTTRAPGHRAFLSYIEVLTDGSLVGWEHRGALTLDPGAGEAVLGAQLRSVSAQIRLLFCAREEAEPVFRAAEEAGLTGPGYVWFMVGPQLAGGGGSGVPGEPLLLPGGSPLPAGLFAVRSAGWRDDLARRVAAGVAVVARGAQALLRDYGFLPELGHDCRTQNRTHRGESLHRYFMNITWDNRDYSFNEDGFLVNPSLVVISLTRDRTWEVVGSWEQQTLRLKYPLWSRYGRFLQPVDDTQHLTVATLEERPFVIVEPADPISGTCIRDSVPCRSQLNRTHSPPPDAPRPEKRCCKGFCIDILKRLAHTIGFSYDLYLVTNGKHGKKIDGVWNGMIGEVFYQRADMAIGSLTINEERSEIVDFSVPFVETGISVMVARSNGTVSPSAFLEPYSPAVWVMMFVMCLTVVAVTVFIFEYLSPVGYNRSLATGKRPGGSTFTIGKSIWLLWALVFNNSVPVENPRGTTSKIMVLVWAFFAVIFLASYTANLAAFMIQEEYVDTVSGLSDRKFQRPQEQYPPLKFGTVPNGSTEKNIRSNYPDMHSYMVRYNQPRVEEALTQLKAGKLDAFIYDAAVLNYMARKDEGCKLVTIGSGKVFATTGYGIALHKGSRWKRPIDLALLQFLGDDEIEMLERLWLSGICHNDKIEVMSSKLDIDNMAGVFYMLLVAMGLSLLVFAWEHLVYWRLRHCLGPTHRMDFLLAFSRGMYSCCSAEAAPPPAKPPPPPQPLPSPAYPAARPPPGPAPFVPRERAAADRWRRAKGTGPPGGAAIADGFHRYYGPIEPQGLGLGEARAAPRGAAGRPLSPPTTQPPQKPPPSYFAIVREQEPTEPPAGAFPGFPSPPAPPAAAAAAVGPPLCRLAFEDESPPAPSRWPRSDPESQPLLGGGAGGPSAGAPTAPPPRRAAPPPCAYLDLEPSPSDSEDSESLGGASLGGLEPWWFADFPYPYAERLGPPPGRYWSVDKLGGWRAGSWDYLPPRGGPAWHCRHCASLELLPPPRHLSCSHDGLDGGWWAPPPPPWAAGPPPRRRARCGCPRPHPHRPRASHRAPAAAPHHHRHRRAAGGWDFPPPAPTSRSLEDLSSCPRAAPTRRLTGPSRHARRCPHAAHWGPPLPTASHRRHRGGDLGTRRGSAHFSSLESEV
α7-nACh, sequence (Q05941 23-502): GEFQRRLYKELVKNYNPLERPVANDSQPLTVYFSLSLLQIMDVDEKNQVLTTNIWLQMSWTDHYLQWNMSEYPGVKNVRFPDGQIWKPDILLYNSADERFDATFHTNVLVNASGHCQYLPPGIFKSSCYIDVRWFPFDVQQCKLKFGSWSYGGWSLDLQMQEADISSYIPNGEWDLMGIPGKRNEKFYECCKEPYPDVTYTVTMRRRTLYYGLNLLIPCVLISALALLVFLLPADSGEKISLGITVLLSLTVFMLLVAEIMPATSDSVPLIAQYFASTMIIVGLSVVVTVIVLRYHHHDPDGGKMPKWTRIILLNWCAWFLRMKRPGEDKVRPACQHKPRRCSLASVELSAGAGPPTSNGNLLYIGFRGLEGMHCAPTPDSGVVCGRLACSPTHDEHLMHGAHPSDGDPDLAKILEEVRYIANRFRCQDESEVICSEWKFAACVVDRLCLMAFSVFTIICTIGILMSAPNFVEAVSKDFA

Row | τdeactivation following glutamate removal ([1]; 0.03 μM compound, mean ± SEM) [s] | τdeactivation following glutamate removal ([1]; 0.1 μM compound, mean ± SEM) [s] | τdeactivation following glutamate removal ([1]; 0.3 μM compound, mean ± SEM) [s] | Hill slope ([1]; coapplication with glutamate) | fold-change in IC50 for the peak and steady-state current responses ([1]; mean ± SEM, compared by ANOVA) | IC50 fold higher during peak compared to steady-state ([1]; ratio of IC50 values) [fold] | IC50 fold higher at first pulse compared to fifth pulse ([1]; trains of brief agonist applications) [fold] | % control α7-nACh [2] [%] | SMILES
1 | 5.6 ± 0.3 | 7.3 ± 0.3 | 10.5 ± 1.0 | 0.93 | 3.0 ± 0.3 | 3 | 1.9 | – | O=C(O)CC(F)(F)C(=O)N1N=C(c2c(-c3ccc(Cl)cc3)c3ccccc3[nH]c2=O)CC1c1ccc(Cl)cc1 (centres unmarked) [2i]
2 | – | – | – | – | – | – | – | 105 ± 13.5 | O=C(O)CC(F)(F)C(=O)N1N=C(c2c(-c3ccc(Cl)cc3)c3ccccc3[nH]c2=O)C[C@H]1c1ccc(Cl)cc1 [(S)-(−)-2i]
